Assays:
[1] = tested on: rat brain homogenate (lipid peroxide production); experiment: Antioxidant activity test (rat brain homogenate autoxidation test); type: biochemical; conditions: lipid peroxide production suppression, 2 hours at 37 degrees Celsius, thiobarbituric acid method
Description: The cerebrum was removed from 7 to 11 week old male Wistar rats (Nihon Ikagaku) or male Sprague-Dawley (IGS) rats (Charles River), physiological saline was added, and a 20% brain homogenate was made. 4 μl of test compound dissolved in DMSO was mixed with 200 μl of brain homogenate and 200 μl of PBS (−) (diluted 100 times), incubated for 2 hours at 37 degrees Celsius and shaken at a rate of 160 times per minute, thereby producing a lipid peroxide. After cooling for 5 minutes, the produced lipid peroxide was measured as a thiobarbituric acid reactive substance by using the thiobarbituric acid method. Briefly, 100 μl of 8.1% dodecyl sulfate, 750 μl of 20% acetic acid adjusted to a pH of 3.5, and 750 μl of 0.8% thiobarbituric acid were added, and boiled for 60 minutes, and then cooled. Next, 500 μl of distilled water and 2.5 ml of N-butanol/pyridine (15:1) were added and after 5 minutes of shaking, the supernatant was taken after centrifuging for 10 minutes at 3000 rpm, and the absorbance at 532 nm was measured. The number of examples was 2 examples. Calculation was done of the (absorbance at each concentration/absorbance of a solvent control)×100, and after logit transformation, the lipid peroxide production suppression effect (IC 50 value) was calculated as an indicator of antioxidant activity.

[2] = tested on: astrocyte/neuron co-culture; experiment: Brain cell damage induced by hydrogen peroxide treatment (LDH assay); type: cell-based; conditions: Rattus norvegicus, hydrogen peroxide (250 μM), 24 hours, read-out: 50% inhibition concentration against cell damage in entire co-culture system (EC50 value)
Description: (§1) The brain was removed from 1 to 2 day old Wistar rats (Charles River) or Sprague-Dawley (IGS) rats (Charles River), and the cerebral cortex including the hippocampus was excised under ice cooling. After this cerebral cortex was minced, it was digested with papain solution (9 U/ml) containing DNase I (30 U/ml) at 37 degrees Celsius for 15 minutes, dispersing the cells. After further carrying out mechanical dispersing by pipetting, it was passed through a cell strainer with a pore size of 70 μm, and a cell suspension was obtained. Cells derived from 1.4 cerebra were seeded on 150 mm tissue culture dish (Iwaki Glass), and primary culture was carried out at 37 degrees Celsius and 5% CO2 using a D-MEM medium (Invitrogen) containing 10% heat-inactivated fetal calf serum (JRH). One day after the start of the culture, the nonadherent cells were removed, and the primary cultured astrocytes were obtained by continuing the culture for 4 to 5 further days. The primary cultured astrocytes were dispersed by trypsin treating, suspended in cryopreservation solution, and cryopreserved.
(§2) After thawing the cryopreserved primary cultured astrocytes, they were seeded on tissue culture plates (Iwaki Glass), and a confluent astrocyte layer was produced by a further 7 days of secondary culture using a D-MEM medium containing 10% heat-inactivated fetal calf serum. Neurons to be used in the co-culture with the astrocyte layer were obtained from fetal rat cerebrum. Briefly, brains were removed from Wistar rats (Charles River) or Sprague-Dawley (IGS) rats (Charles River) of embryonic age 18.5 days, and the cerebral cortex including the hippocampus was excised under ice cooling. After this cerebral cortex was minced, it was digested in papain solution (9 U/ml) containing DNase I (30 U/ml) at 37 degrees Celsius for 15 minutes, dispersing the cells. After further carrying out mechanical dispersing by pipetting, it was passed through a cell strainer with a pore size of 70 μm, and a cell suspension was obtained. This cell suspension was plated at a density of 1.3×10^5 cells/cm^2 on the astrocyte layer, and a co-culture was carried out using D-MEM/F-12 medium (Invitrogen) containing 10% heat-inactivated fetal calf serum and 5% horse serum (Invitrogen). 2 days after the start of the co-culture, cells were treated for 24 hours with 10 μM cytosine arabinoside in order to suppress the excessive cell proliferation of microglia and the like. 8 to 9 days after the start of the co-culture, cells were used for the test. Additionally, using one portion of the cells, immunofluorescent staining and nuclear staining was carried out with astrocyte recognizing antibodies (anti-GFAP) and neuron recognizing antibodies (anti-MAP2), in order to confirm that the present culture system is a co-culture system of astrocytes and neurons.
(§3) An astrocyte/neuron co-culture cultured on a 96 well plate was used in the test. A predetermined concentration of the test substance and hydrogen peroxide (250 μM) was simultaneously added to the cell culture in each well with continuing cultivation, and analysis was done 24 hours after this treatment. Using an LDH Cytotoxicity Detection Kit (Takara Bio), analysis was carried out in accordance with the included instruction manual, and the damage to the entire co-culture system by the hydrogen peroxide treatment and the protective effect (EC 50 value) of the test substance was evaluated. Further, the cell bodies and the neuronal processes of the neurons were observed by microscope, and the neuroprotective effect was evaluated.

[3] = tested on: neurons in astrocyte/neuron co-culture; experiment: Brain cell damage induced by hydrogen peroxide treatment (neuroprotective effect, microscope observation); type: cell-based; conditions: Rattus norvegicus, hydrogen peroxide (250 μM), 24 hours, read-out: Concentration for complete inhibition of neuronal death
Description: as §1, §2, §3

Compound	IC50 [1]	EC50 [2]	EC100 [3]
Cc1ccc(N2CCN(c3nc(N4CCN(C)CC4)nc(N4CCOCC4)c3F)CC2)cc1 [Compound 151, 5-fluoro-4-[4-(4-methylphenyl)piperazin-1-yl]-2-(4-methylpiperazin-1-yl)-6-morpholinopyrimidine]	8.41 µM	0.98 µM	
Nc1ccc(N2CCN(c3nc(N4CCOCC4)nc(N4CCOCC4)c3F)CC2)cc1 [Compound 146, 4-[4-(4-aminophenyl)piperazin-1-yl]-5-fluoro-2,6-dimorpholinopyrimidine]	1.91 µM	0.96 µM	3 µM
Fc1c(N2CCOCC2)nc(N2CCc3ccccc3C2)nc1N1CCOCC1 [Compound 122, 5-fluoro-4,6-dimorpholino-2-(1,2,3,4-tetrahydro-2H-isoquinolin-2-yl)pyrimidine]	5.48 µM	0.29 µM	1 µM
Nc1c(N2CCOCC2)nc(N2CCN(c3ccccc3)CC2)nc1N1CCOCC1 [Compound 63, 5-amino-4,6-dimorpholino-2-(4-phenylpiperazin-1-yl)pyrimidine]	0.81 µM	8.3 µM	30 µM
COc1ccc(/C=C/c2nc(N(C)C)c(N)c(N(C)C)n2)cc1 [Compound 140, 5-amino-4,6-bis(dimethylamino)-2-[2-(4-methoxyphenyl)vinyl]pyrimidine]	0.55 µM	5.15 µM	10 µM
Cc1ccc(N2CCN(c3nc(N4CCOCC4)nc(N4CCOCC4)c3F)CC2)cc1 [Compound 99, 5-fluoro-4-[4-(4-methylphenyl)piperazin-1-yl]-2,6-dimorpholinopyrimidine]	7.51 µM	0.4 µM	1 µM
Cc1cccc(N2CCN(c3nc(N4CCOCC4)c(F)c(N4CCOCC4)n3)CC2)c1C [Compound 105, 5-fluoro-4,6-dimorpholino-2-[4-(2,3-xylyl)piperazin-1-yl]pyrimidine]	2.77 µM	0.29 µM	1 µM
Fc1c(N2CCOCC2)nc(N2Cc3ccccc3C2)nc1N1CCOCC1 [Compound 89, 5-fluoro-2-(isoindolin-2-yl)-4,6-dimorpholinopyrimidine]	3.48 µM	0.53 µM	3 µM
CN(C)c1nc(N2CCOCC2)c(F)c(N2CCN(c3ccccn3)CC2)n1 [Compound 91, 2-dimethylamino-5-fluoro-6-morpholino-4-[4-(pyridin-2-yl)piperazin-1-yl]pyrimidine]	5.88 µM	0.88 µM	10 µM
Fc1c(N2CCOCC2)nc(N2CCOCC2)nc1N1CCc2ccccc2C1 [Compound 87, 5-fluoro-4-(3,4-dihydro-1H-isoquinolin-2-yl)-2,6-dimorpholinopyrimidine]	5.78 µM	0.68 µM	3 µM
COc1ccc(/C=C/c2nc(N3CCOCC3)c(N)c(N3CCN(C(=O)CN)CC3)n2)cc1 [Compound 176, 5-amino-4-(4-aminomethylcarbonylpiperazin-1-yl)-2-[2-(4-methoxyphenyl)vinyl]-6-morpholinopyrimidine]	2.16 µM	2.74 µM	10 µM
COc1ccc(/C=C/c2nc(N3CCNCC3)c(N)c(N3CCOCC3)n2)cc1 [Compound 170, 5-amino-2-[2-(4-methoxyphenyl)vinyl]-4-morpholino-6-(1-piperazinyl)pyrimidine]	3.1 µM	0.99 µM	3 µM
Oc1ccc(N2CCN(c3nc(N4CCOCC4)cc(N4CCOCC4)n3)CC2)cc1 [Compound 30, 2-[4-(4-hydroxyphenyl)piperazin-1-yl]-4,6-dimorpholinopyrimidine]	6.84 µM	3.01 µM	10 µM
CN(C)c1nc(N2CCOCC2)c(F)c(N2CCN(c3ccccc3Cl)CC2)n1 [Compound 110, 4-[4-(2-chlorophenyl)piperazin-1-yl]-2-dimethylamino-5-fluoro-6-morpholinopyrimidine]	3.02 µM	0.33 µM	1 µM
COc1ccc(/C=C/c2nc(N3CCOCC3)c(N)c(N(C)C3CCN(C)CC3)n2)cc1 [Compound 198, 5-amino-2-[2-(4-methoxyphenyl)vinyl]-4-[N-methyl-N-(1-methylpiperidin-4-yl)amino]-6-morpholinopyrimidine]	1.04 µM	3.74 µM	10 µM
COc1ccc(/C=C/c2nc(N3CCOCC3)c(F)c(N3CCOCC3)n2)cc1 [Compound 216, 5-fluoro-2-[2-(4-methoxyphenyl)vinyl]-4,6-dimorpholinopyrimidine]	0.86 µM	0.73 µM	3 µM
Nc1c(N2CCOCC2)nc(N2CCC(Cc3ccccc3)CC2)nc1N1CCOCC1 [Compound 66, 5-amino-2-(4-benzylpiperidin-1-yl)-4,6-dimorpholinopyrimidine]	0.82 µM	2.86 µM	30 µM
CN(C)c1nc(N2CCC(Cc3ccccc3)CC2)nc(N2CCSCC2)c1N [Compound 69, 5-amino-2-(4-benzylpiperidin-1-yl)-4-dimethylamino-6-thiomorpholinopyrimidine]	1.26 µM	0.29 µM	3 µM
Nc1c(N2CCOCC2)nc(N2CCN(Cc3ccccc3)CC2)nc1N1CCOCC1 [Compound 73, 5-amino-2-(4-benzylpiperazin-1-yl)-4,6-dimorpholinopyrimidine]	0.69 µM	10.6 µM	
COc1ccc(/C=C/c2nc(NCCN3CCNCC3)c(N)c(N3CCOCC3)n2)cc1 [Compound 173, 5-amino-2-[2-(4-methoxyphenyl)vinyl]-4-morpholino-6-[2-(1-piperazinyl)ethylamino]pyrimidine]	2.08 µM	4.72 µM	30 µM
Fc1c(N2CCOCC2)nc(N2CCOCC2)nc1N1CCNC(c2ccccc2)C1 (stereo not shown) [Compound 94, 5-fluoro-2,4-dimorpholino-6-(3-phenylpiperazin-1-yl)pyrimidine]	16 µM	0.68 µM	3 µM
c1ccc(N2CCN(c3cc(N4CCOCC4)nc(N4CCN(c5ccccc5)CC4)n3)CC2)cc1 [Compound 57, 2,4-bis(4-phenylpiperazin-1-yl)-6-morpholinopyrimidine]	30.5 µM	5.12 µM	30 µM
Nc1c(N2CCOCC2)nc(N2CCN(c3ccccn3)CC2)nc1N1CCOCC1 [Compound 75, 5-amino-4,6-dimorpholino-2-[4-(pyridin-2-yl)-piperazin-1-yl]pyrimidine]	0.67 µM	9.46 µM	
CN1CCN(c2nc(N3CCN(c4ccccc4Cl)CC3)nc(N3CCOCC3)c2F)CC1 [Compound 187, 2-[4-(2-chlorophenyl)piperazin-1-yl]-5-fluoro-6-(4-methylpiperazin-1-yl)-4-morpholino pyrimidine]		0.33 µM	1 µM
COc1ccc(/C=C/c2nc(NCCN)c(N)c(N3CCOCC3)n2)cc1 [Compound 174, 5-amino-4-(2-aminoethylamino)-2-[2-(4-methoxyphenyl)vinyl]-6-morpholinopyrimidine]		3.11 µM	10 µM
